Our source for the TGI values is PubChem BioAssay (NCI).

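Exposure lasted 48 hours, with cells grown in 96-well plates and compounds tested at five concentrations. TGI denotes the concentration required for complete inhibition of growth.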

Among the test systems are BT-549 breast; CCRF-CEM leukemia; HCT-116 colon; HCT-15 colon; HOP-92 NSCLC; HS 578T breast; KM12 colon; MCF7 breast; MDA-MB-231 breast; NCI-H23 lung; NCI-H522 lung; NCI/ADR-RES ovarian; OVCAR-3 ovarian; OVCAR-5 ovarian; OVCAR-8 ovarian; RPMI-8226 leukemia; SF-295 CNS; SN12C renal; T-47D breast; HL-60(TB) leukemia.
Test in all cases: NCI anticancer screen, dose series, 48 h

In the case of `N#CCCN(CCC#N)c1ccc(C(N=Nc2ccc(Cl)cc2)=Nc2ccc(Cl)cc2)cc1`, the TGI came to 36.3 µM in the test with BT-549 breast; 65.3 µM in the test on CCRF-CEM leukemia; 36.5 µM with HCT-116 colon; 23.7 µM in the test on HCT-15 colon; 38.8 µM in the test with HOP-92 NSCLC; 35.2 µM in the test with HS 578T breast. Moreover, the TGI turned out to be 44.1 µM with KM12 colon; 24.7 µM with MCF7 breast; 42 µM in the test with MDA-MB-231 breast; 41.8 µM in the test on NCI-H23 lung; 32.5 µM in the test on NCI-H522 lung; 38 µM in the test on NCI/ADR-RES ovarian. The TGI with OVCAR-3 ovarian was 36.9 µM; in the test on OVCAR-5 ovarian, 43.8 µM; in the test on OVCAR-8 ovarian it was 31.4 µM; in the test on RPMI-8226 leukemia, greater than 100 µM; in the test with SF-295 CNS, 29.2 µM; with SN12C renal, 33.5 µM. In the test on T-47D breast, this molecule displayed a TGI of 23.9 µM.

Turning to `Cc1c(-c2ccc(O)c(O)c2)oc(=O)c2c(O)cccc12`, the TGI in the test on BT-549 breast is 44.6 µM; in the test with CCRF-CEM leukemia it was greater than 100 µM; in the test on HCT-116 colon, 20 µM; with HCT-15 colon, 17.7 µM; with HL-60(TB) leukemia it was greater than 100 µM; with HOP-92 NSCLC, 58.2 µM. For the same molecule, the TGI came out at 23.9 µM in the test with HS 578T breast; 24.2 µM in the test with KM12 colon; 34.4 µM in the test with MCF7 breast; 22 µM in the test with NCI-H23 lung; 15.5 µM in the test with NCI-H522 lung; 29.7 µM in the test on NCI/ADR-RES ovarian. Also, the TGI with OVCAR-3 ovarian was 66.1 µM; in the test with OVCAR-5 ovarian it was 33.5 µM; with OVCAR-8 ovarian, greater than 100 µM; in the test with RPMI-8226 leukemia it was 50 µM; in the test on SF-295 CNS, 42.2 µM; in the test with SN12C renal, 19.5 µM. In the test with T-47D breast, this molecule gave a TGI of 15.4 µM.

As to `NC(C(=O)OC(=O)c1ccccc1)C(=O)OC(=O)c1ccccc1`, the TGI with BT-549 breast, in the test with CCRF-CEM leukemia, in the test on HCT-116 colon, in the test on HCT-15 colon, in the test with HS 578T breast and in the test with KM12 colon was greater than 100 µM in each case. Also, the TGI with MCF7 breast, in the test on MDA-MB-231 breast, with NCI-H23 lung, with NCI-H522 lung, in the test with NCI/ADR-RES ovarian and in the test with OVCAR-3 ovarian was greater than 100 µM throughout. The TGI in the test on OVCAR-5 ovarian, in the test on OVCAR-8 ovarian, in the test on RPMI-8226 leukemia, in the test on SF-295 CNS, in the test with SN12C renal and in the test on T-47D breast was greater than 100 µM each time.

As to `Nc1ccc(OCCCc2c(-c3ccccc3)nc(N)[nH]c2=O)cc1`, the TGI in the test with BT-549 breast, in the test on CCRF-CEM leukemia, in the test with HCT-116 colon, in the test with HCT-15 colon, with HL-60(TB) leukemia and with HS 578T breast was greater than 100 µM each time. Further, the TGI in the test with KM12 colon, in the test on MCF7 breast, with MDA-MB-231 breast, with NCI-H23 lung, in the test with NCI-H522 lung and with NCI/ADR-RES ovarian was greater than 100 µM each time. The TGI in the test with OVCAR-3 ovarian, in the test with OVCAR-5 ovarian, with OVCAR-8 ovarian, in the test on RPMI-8226 leukemia, in the test on SF-295 CNS and in the test on SN12C renal was greater than 100 µM throughout. The TGI in the test on T-47D breast came out at 81.2 µM.

On to `NC(=O)C1N=NSC1NC(=O)c1ccc([N+](=O)[O-])cc1` (stereo unspecified), for which the TGI with BT-549 breast, in the test with CCRF-CEM leukemia, with HCT-116 colon, in the test with HCT-15 colon, in the test on HS 578T breast and with KM12 colon was greater than 100 µM in each case. The TGI in the test with MCF7 breast, in the test on MDA-MB-231 breast, in the test with NCI-H23 lung, with NCI/ADR-RES ovarian, with OVCAR-3 ovarian and with OVCAR-5 ovarian was greater than 100 µM in each case. Further, the TGI in the test on OVCAR-8 ovarian, in the test on RPMI-8226 leukemia, in the test with SF-295 CNS, with SN12C renal and in the test with T-47D breast was greater than 100 µM in each case.

Regarding `Cc1nc2ccccc2n1Cc1nnc2n1N=C(c1ccccc1)CS2`, the TGI was 80.8 µM in the test on BT-549 breast; greater than 100 µM with CCRF-CEM leukemia; greater than 100 µM in the test with HCT-116 colon; greater than 100 µM in the test on HCT-15 colon; 95.3 µM in the test with HL-60(TB) leukemia; greater than 100 µM in the test with HS 578T breast. In addition, the TGI with KM12 colon is greater than 100 µM; with MCF7 breast, greater than 100 µM; in the test on MDA-MB-231 breast, 62.9 µM; in the test with NCI-H23 lung it was greater than 100 µM; with NCI-H522 lung, 71.2 µM; with NCI/ADR-RES ovarian, greater than 100 µM. Moreover, the TGI in the test with OVCAR-3 ovarian was greater than 100 µM; in the test with OVCAR-5 ovarian, greater than 100 µM; in the test with RPMI-8226 leukemia it was greater than 100 µM; in the test with SF-295 CNS it was greater than 100 µM; in the test with SN12C renal it was greater than 100 µM; in the test with T-47D breast, 43.5 µM.

Turning to `CCOC(=O)C1=C(C)NC(C)=C(C(=O)OCC)C1c1ccc(C)cc1`, the TGI with BT-549 breast is greater than 100 µM; in the test with HCT-116 colon, greater than 100 µM; in the test with HCT-15 colon, greater than 100 µM; in the test on HOP-92 NSCLC it was 51.5 µM; with HS 578T breast, greater than 100 µM; in the test with KM12 colon, greater than 100 µM. Moreover, the TGI was 47.3 µM with MCF7 breast; 84.3 µM with MDA-MB-231 breast; greater than 100 µM in the test on NCI-H23 lung; 94.2 µM in the test on NCI-H522 lung; 87.7 µM in the test on OVCAR-3 ovarian; greater than 100 µM in the test on OVCAR-5 ovarian. Further, the TGI with OVCAR-8 ovarian is greater than 100 µM; with RPMI-8226 leukemia, 85.8 µM; with SF-295 CNS, greater than 100 µM; in the test on SN12C renal, 80.5 µM; in the test with T-47D breast, greater than 100 µM.

For `C=CCN1C[C@@H](C)N([C@@H](c2ccc(C(=O)N(CC)CC)cc2)c2cccc(OC)c2)C[C@@H]1C`, the TGI in the test on BT-549 breast, in the test on CCRF-CEM leukemia, with HCT-116 colon, in the test on HCT-15 colon, with HOP-92 NSCLC and in the test on HS 578T breast was greater than 100 µM in each case. For the same molecule, the TGI in the test with KM12 colon, in the test on MCF7 breast, in the test on MDA-MB-231 breast, in the test with NCI-H23 lung, in the test on NCI-H522 lung and in the test on NCI/ADR-RES ovarian was greater than 100 µM each time. Also, the TGI in the test with OVCAR-3 ovarian, with OVCAR-5 ovarian, with OVCAR-8 ovarian, in the test with RPMI-8226 leukemia, in the test on SF-295 CNS and with SN12C renal was greater than 100 µM in each case. The molecule also yielded a TGI in the test on T-47D breast greater than 100 µM.
